Results on 6 molecules are retold here after ChEMBL document CHEMBL1201862, “PubChem BioAssay data set” (2004).

Test [1] deals with 26S proteasome non-ATPase regulatory subunit 14 (Homo sapiens, UniProt O00487). Description: inhibition of proteasome subunit RPN11 – biochemical, fluorescence polarization, uHTS hits, confirmation (AID 602368). It counts as functional.
Test [2] has as its target Misshapen-like kinase 1 (Homo sapiens, UniProt Q8N4C8). It counts as functional.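 Further: kinome panel screen with MINK as the panel member.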
Test [3] addresses Platelet-derived growth factor receptor alpha (Homo sapiens, UniProt P16234). Description: Navigating the Kinome. Panel member name: PDGFRA. It counts as functional.
Test [4] concerns the target Serine/threonine-protein kinase Chk1 (Homo sapiens, UniProt O14757). It counts as functional.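 Further: measured as one member of a kinome-wide kinase profiling panel.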
Test [5] concerns the target Focal adhesion kinase 1 (Homo sapiens, UniProt Q05397). It counts as functional.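 Further: measured as one member of a kinome panel.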
The target of test [6] is T1, Heat shock factor protein 1 (Mus musculus, UniProt P38532).
T1 sequence (P38532 whole entry): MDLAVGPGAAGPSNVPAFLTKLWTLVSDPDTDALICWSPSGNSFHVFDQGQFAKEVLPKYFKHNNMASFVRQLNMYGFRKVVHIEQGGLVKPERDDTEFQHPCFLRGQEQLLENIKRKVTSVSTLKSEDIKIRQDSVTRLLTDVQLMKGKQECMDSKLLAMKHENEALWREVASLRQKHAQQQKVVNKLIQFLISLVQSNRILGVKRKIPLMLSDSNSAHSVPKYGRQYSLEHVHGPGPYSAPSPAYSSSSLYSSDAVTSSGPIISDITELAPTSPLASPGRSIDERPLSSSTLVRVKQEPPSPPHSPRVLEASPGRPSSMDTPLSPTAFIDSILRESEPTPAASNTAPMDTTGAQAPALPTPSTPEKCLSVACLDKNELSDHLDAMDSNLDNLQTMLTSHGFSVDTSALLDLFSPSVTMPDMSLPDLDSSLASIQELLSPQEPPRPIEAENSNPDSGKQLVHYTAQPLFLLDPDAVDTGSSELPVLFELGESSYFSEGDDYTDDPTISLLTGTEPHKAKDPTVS
Nature of the test: inhibition of MG132-induced HSE-luciferase signal, confirmation, cell-based, NIH3T3, luminescence, dose retest (AID 2382).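 Further: NIH3T3 fibroblasts with HSF1-driven luciferase reporter stressed by proteasome inhibitor MG132; luminescence from HSF1-driven luciferase expression after 8 hours of MG132 stress.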 It counts as functional.

Test [7] has as its target T2, Bcl-2-related protein A1 (Mus musculus, UniProt Q07440).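 Further: confirmatory dose–response counterscreen on Bfl-1, used to check hits from a UBC13 polyubiquitin inhibitor campaign.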
T2 sequence (Q07440 whole entry): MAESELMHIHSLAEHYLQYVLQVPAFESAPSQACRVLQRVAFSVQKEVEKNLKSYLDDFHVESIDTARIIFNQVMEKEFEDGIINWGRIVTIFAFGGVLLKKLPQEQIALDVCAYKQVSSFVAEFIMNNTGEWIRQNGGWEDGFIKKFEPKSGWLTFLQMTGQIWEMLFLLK
It counts as functional.

Test [8] can be described thus: CEM21 lymphoblast cell cytotoxicity, dose response, cytotoxicity control for viral fusion inhibitor project, CellTiter-Glo luminescence, cherry-picked (AID 652042).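 Further: potency for signal decrease meaning cytotoxicity.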 It counts as functional, cell-based. On the technique in general: In ATP-based viability assays light output follows the ATP content of the culture.
Test [9] addresses T3, RNA-binding protein pos-1 (Caenorhabditis elegans, UniProt G5EF15).
T3 sequence (G5EF15 whole entry): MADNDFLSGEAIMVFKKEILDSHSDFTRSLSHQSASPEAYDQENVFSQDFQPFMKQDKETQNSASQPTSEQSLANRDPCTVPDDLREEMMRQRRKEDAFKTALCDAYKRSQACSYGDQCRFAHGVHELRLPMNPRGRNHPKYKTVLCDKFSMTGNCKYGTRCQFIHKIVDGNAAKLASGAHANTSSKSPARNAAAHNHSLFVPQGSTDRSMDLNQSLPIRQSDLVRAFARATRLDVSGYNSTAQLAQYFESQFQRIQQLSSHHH
Description: inhibitors of POS-1/mex-3 RNA binding, dose response, biochemical, fluorescence polarization (AID 1964). (In general: Fluorescence polarisation rises when a labelled molecule tumbles more slowly, as on binding a larger partner.)

The source made the active and inactive calls.

Serine/threonine-protein kinase Chk1, sequence (O14757 whole entry): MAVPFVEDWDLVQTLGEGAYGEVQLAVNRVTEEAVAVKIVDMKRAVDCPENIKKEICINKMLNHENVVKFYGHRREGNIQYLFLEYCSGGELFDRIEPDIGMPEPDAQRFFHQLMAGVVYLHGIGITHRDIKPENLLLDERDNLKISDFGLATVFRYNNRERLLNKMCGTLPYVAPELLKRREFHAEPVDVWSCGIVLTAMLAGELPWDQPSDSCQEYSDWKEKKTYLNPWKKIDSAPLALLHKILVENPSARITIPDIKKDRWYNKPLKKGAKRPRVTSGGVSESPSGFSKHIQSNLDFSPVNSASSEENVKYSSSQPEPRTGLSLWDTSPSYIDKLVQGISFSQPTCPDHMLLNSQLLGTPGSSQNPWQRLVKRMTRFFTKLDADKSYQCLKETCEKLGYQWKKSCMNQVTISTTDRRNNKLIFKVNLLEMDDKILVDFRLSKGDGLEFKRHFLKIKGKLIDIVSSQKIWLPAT
Platelet-derived growth factor receptor alpha, sequence (P16234 whole entry): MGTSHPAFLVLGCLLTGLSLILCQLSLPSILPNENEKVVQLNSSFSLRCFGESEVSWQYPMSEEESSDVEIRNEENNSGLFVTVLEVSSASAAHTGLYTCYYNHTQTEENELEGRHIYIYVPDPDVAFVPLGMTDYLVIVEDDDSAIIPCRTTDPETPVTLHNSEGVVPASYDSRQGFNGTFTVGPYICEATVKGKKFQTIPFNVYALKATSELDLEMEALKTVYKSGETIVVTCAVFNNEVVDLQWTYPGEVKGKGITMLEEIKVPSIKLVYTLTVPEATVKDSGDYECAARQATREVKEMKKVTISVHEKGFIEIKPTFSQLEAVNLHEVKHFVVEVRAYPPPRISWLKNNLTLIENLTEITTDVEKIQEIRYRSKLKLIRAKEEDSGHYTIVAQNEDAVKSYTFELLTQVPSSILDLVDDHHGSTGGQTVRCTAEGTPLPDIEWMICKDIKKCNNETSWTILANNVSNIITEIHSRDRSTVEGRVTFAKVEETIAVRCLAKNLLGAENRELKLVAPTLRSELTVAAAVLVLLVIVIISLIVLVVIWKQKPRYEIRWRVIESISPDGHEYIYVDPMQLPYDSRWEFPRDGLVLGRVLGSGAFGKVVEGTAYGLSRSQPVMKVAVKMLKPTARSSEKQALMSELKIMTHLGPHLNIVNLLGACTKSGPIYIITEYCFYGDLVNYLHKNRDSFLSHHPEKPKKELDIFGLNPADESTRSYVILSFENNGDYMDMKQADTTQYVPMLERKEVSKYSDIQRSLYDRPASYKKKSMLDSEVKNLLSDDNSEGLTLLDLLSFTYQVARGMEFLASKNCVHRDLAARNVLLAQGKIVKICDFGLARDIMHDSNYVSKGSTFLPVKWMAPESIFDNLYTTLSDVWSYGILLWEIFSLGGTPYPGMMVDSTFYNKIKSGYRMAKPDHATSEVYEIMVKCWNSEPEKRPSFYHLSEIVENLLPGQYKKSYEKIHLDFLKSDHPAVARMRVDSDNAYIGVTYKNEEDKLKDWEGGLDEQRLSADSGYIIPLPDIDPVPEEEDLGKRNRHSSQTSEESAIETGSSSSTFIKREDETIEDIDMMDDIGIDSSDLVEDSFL
Focal adhesion kinase 1, sequence (Q05397 whole entry): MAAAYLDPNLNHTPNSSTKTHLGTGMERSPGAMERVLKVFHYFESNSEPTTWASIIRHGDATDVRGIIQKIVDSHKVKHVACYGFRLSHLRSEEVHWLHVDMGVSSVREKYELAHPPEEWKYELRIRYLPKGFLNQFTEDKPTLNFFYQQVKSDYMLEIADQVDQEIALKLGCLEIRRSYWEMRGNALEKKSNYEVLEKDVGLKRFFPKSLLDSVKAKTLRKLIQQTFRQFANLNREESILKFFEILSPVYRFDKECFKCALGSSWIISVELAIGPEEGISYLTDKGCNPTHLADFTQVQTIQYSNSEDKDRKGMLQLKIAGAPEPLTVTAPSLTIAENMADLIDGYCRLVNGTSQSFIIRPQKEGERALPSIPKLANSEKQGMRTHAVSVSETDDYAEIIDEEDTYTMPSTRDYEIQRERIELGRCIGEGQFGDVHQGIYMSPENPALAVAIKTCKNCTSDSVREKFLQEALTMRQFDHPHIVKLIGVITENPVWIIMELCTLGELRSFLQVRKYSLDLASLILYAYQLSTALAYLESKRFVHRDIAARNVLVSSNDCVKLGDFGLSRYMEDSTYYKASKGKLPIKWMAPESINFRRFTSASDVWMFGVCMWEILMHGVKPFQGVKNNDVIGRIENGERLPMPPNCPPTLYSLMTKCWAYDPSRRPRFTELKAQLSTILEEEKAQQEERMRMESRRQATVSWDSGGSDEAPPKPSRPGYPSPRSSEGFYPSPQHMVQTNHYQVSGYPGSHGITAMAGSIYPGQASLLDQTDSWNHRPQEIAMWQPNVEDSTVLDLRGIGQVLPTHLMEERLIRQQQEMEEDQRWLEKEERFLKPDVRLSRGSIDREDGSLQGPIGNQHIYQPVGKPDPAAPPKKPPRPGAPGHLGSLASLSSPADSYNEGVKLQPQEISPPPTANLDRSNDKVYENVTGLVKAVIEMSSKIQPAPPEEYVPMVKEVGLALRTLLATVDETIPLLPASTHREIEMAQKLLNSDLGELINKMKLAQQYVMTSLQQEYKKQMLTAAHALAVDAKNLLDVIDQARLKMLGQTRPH
Misshapen-like kinase 1, sequence (Q8N4C8 whole entry): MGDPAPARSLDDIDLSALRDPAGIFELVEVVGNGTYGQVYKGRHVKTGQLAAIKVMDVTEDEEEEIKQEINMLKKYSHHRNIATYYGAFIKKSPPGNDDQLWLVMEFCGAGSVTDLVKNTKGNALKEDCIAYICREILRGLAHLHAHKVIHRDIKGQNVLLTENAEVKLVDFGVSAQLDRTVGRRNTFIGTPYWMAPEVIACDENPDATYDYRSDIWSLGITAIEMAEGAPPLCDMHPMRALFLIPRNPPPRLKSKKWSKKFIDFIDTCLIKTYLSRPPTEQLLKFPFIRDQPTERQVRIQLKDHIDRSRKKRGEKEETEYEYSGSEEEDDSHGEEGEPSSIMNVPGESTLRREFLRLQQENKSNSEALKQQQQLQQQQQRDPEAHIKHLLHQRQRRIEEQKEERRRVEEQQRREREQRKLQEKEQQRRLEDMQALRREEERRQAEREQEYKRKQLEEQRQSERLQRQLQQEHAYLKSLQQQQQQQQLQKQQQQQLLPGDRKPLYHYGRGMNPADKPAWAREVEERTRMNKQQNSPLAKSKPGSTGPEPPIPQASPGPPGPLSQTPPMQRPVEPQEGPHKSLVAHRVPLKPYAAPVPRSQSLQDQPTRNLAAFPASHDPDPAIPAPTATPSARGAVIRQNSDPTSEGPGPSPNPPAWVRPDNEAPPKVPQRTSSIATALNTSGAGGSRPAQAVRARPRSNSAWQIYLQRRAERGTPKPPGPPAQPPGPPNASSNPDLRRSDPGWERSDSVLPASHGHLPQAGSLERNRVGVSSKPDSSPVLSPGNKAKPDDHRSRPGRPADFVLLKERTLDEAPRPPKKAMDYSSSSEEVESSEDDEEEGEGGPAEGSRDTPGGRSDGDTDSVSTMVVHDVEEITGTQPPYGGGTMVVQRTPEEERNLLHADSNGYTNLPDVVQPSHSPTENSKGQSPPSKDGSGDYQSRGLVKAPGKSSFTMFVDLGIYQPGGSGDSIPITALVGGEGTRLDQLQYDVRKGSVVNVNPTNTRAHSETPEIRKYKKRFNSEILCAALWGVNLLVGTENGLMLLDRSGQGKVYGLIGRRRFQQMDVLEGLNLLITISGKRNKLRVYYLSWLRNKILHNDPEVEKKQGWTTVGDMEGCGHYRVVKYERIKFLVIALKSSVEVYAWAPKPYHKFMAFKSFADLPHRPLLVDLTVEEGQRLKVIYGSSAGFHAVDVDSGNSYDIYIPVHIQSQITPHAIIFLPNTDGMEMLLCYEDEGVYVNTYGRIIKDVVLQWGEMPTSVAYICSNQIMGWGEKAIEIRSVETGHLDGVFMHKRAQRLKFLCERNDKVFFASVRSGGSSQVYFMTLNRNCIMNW
26S proteasome non-ATPase regulatory subunit 14, sequence (O00487 whole entry): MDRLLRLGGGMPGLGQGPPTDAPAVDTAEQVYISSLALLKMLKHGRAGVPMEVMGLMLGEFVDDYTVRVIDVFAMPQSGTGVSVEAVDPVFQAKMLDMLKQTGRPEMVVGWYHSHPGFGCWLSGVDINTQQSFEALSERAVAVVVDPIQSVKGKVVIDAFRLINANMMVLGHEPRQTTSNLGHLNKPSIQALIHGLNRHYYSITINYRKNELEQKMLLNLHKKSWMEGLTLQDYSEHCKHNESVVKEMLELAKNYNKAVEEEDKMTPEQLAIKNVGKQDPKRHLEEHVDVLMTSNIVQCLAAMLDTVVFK

With `O=C(N/N=C/c1c(O)ccc2ccccc12)c1[nH]ncc1Br`, the IC50 (commonly the concentration that gives 50% inhibition) in [1] was 24 µM (active).
For `O=C(Nc1cc(-c2c[nH]c3ncccc23)cc(Cl)n1)c1ccccc1`, the Ki in test [2] and in test [3] was > 2.51 µM (inactive) in each case.
As to `Nc1c(-c2ccc(NC(=O)Nc3cccc(C(F)(F)F)c3)cc2)cnc2c(-c3ccc4c(c3)OCO4)cnn12`, the figures for the Ki in test [4] and in [5] were > 3.16 µM (inactive) and > 6.31 µM (inactive), respectively.
Take `CNC[C@H](Cc1ccccc1)NC[C@@H](Cc1cccc2ccccc12)NCCc1ccc(C)cc1`: the concentration giving a half-maximal response (EC50) – broadly, the concentration needed to bring the measured effect to its halfway point – in test [6] is 18.5 µM (active). Further, the IC50 in test [7] was > 20 µM (inactive).
As to `CCN1C(=Cc2sc3ccccc3[n+]2C)C=Cc2cccc(C)c21`, the AC50 (as a rule, the midpoint of the concentration-response curve, whichever way the signal moves) in test [8] was 4.69 µM (active).
For `Nc1nnc2c(n1)CCCC2`, the EC50 in test [9] is 104 µM (active).
